Reference: US5030628A, “N-aryl-azetidinones, their preparation process and their use as elastase inhibitors” (Scientifique, priority 1988, dated 1991)
Like-named read-outs stand apart in the source and are kept apart here.

What was measured:
[1] = tested on: elastase; experiment: Properties with respect to elastase (substrate or inhibitor); format: biochemical
Excerpt: Thus, the nature of the R^3 substituent has a significant influence on the properties of the product obtained.

[2] = molecular target: T1, human leucocytic elastase (HLE) (Homo sapiens, UniProt P08246); experiment: Deactivation of human leucocytic elastase (HLE), Kitz and Wilson kinetics; format: biochemical; settings: for kinact/KI / Ki / kinact: 37° C., Brij 0.01%, NaN3 0.02%, Kitz and Wilson; for Ki: read-out: Ki (dissociation constant of the enzyme-inhibitor complex), HLE; for kinact: read-out: ki (first order constant for the formation of the deactivated enzyme), HLE
T1 sequence (P08246 30-267): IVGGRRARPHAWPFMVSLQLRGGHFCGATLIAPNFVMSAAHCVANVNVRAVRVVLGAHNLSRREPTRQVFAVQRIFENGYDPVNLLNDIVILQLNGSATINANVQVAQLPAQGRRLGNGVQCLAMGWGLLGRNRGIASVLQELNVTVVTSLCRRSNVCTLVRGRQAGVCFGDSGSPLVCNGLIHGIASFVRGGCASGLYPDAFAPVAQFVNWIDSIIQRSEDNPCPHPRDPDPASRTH
Experimental: (§1) All the kinetic measurements are carried out at 37° C. and at a pH of 8 with a 0.1M tris buffer (PPE) or a 0.1M tris buffer, Brij 0.01%, NaN3 0.02% (HLE) (pH 7.5 for compound 5d). The method of Hart and O'Brian was published in 1973 in Biochemistry, Vol. 12, pp. 2940-2945 and that of Kitz and Wilson in 1962 in J. Biol. Chem., Vol. 237, pp. 3245-3249. In this way the first order constant ki is determined for the formation of the deactivated enzyme and the dissociation constant Ki of the enzyme-inhibitor complex. The ki: Ki ratio is the apparent second order constant characterizing the deactivation.

[3] = molecular target: porcine pancreatic elastase (PPE) (Sus scrofa, UniProt P00772); experiment: Deactivation of porcine pancreatic elastase (PPE), Kitz and Wilson / Hart and O'Brian kinetics; format: biochemical; settings: for Ki / kinact / kinact/KI: 37° C., pH 8, 0.1M tris buffer; for Ki / kinact: Kitz and Wilson (5a, 5c, 5e, 10a), Hart and O'Brian (5a, 5'a); for Ki: read-out: Ki (dissociation constant of the enzyme-inhibitor complex), PPE; for kinact: read-out: ki (first order constant for the formation of the deactivated enzyme), PPE; for kinact/KI: read-out: ki/Ki (apparent second order constant characterizing the deactivation), PPE
Experimental: as §1

[4] = tested on: chymotrypsin; experiment: Test as chymotrypsin inhibitors under identical conditions; format: biochemical
Excerpt: (§2) The properties of the N-aryl-azetidinones obtained in examples 4, 5, 6, 7, 11, 17, 22 and 23 are checked and in particular their deactivation capacity for porcine pancreatic elastase (PPE) and human leucocytic elastase (HLE) using the methods of Kitz and Wilson for HLE in the case of compounds 5a, 5c, 5d, 5e, 5a' and 10a, the method of Kitz and Wilson for PPE in the case of compounds 5a, 5c, 5e and 10a and the method of Hart and O'Brian for PPE in the case of compounds 5a and 5'a. All the kinetic measurements are carried out at 37° C. and at a pH of 8 with a 0.1M tris buffer (PPE) or a 0.1M tris buffer, Brij 0.01%, NaN3 0.02% (HLE) (pH 7.5 for compound 5d).
(§3) On testing compounds 5, 5c, 5'a'under identical conditions as chymotrypsin or trypsin inhibitors, it can be seen that they have no action on these enzymes.

[5] = tested on: trypsin; experiment: Test as trypsin inhibitors under identical conditions; format: biochemical
Excerpt: as §2, §3

[6] = tested on: elastase; experiment: Effect on the degradation of elastin by elastase; format: biochemical; settings: for deactivation of elastase previously incubated with elastin: elastase previously incubated for 30 min. in the presence of an elastin excess (2mg)
Experimental: The effect of compound 5on the degradation of elastin, the natural substrate of elastase in the human organism was tested.

[7] = Acute toxicity in male and female mice; settings: mouse, in vivo
Experimental: The acute toxicity of compound 5a researched on male and female mice exceeds 200 mg/kg.

[8] = pH 8, 0.1M tris buffer, read-out: ki/Ki (apparent second order constant characterizing the deactivation), HLE

porcine pancreatic elastase (PPE), sequence (P00772 27-266): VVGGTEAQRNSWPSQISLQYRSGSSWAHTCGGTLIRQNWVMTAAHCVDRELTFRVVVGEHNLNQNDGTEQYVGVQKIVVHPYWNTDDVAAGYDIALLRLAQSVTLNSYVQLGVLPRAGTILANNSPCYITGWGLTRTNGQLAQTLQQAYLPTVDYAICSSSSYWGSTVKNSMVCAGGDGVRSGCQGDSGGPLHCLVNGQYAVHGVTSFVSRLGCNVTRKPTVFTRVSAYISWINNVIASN

Row | Compound | elastase inhibition [1] | elastase substrate [1] | kinact/KI ([2]; pH 7.5 for compound 5d, 0.1M tris buffer, read-out: ki/Ki (apparent second order constant characterizing the deactivation), HLE, pH 7.5) [M⁻¹ s⁻¹] | deactivation of PPE (in words) [3] | Ki [3] [µM] | kinact [3] [s⁻¹] | kinact/KI [3] [M⁻¹ s⁻¹] | deactivation of HLE (in words) [2] | Ki ([2]; pH 8, 0.1M tris buffer) [µM] | kinact ([2]; pH 8, 0.1M tris buffer) [s⁻¹] | kinact/KI [2, 8] [M⁻¹ s⁻¹] | action on chymotrypsin [4] | action on trypsin [5] | deactivation of elastase previously incubated with elastin [6] | capacity of treated elastase to degrade elastin ([6]; elastase previously treated by the compound) | LD50 [7] [mg/kg]
1 | O=C1N(c2ccc(CF)cc2)CC1(F)F [Compound 10b, N-(4-fluoromethylphenyl)-3,3-difluoro-2-azetidinone] | not inhibitors | elastase substrates |  |  |  |  |  |  |  |  |  |  |  |  |  | 
2 | O=C1N(c2ccccc2CBr)CC1(F)F [Compound 5d, N-(2-bromomethylphenyl)-3,3-difluoro-2-azetidinone] |  |  | 40 |  |  |  |  |  |  |  |  |  |  |  |  | 
3 | CS(=O)(=O)OCc1ccccc1N1CC(F)(F)C1=O [Compound 5c, N-(2-methanesulphonyloxymethylphenyl)-3,3-difluoro-2-azetidinone] |  |  |  | deactivate | 48 | 0.017 | 354 | deactivate | 500 | 0.05 | 100 | no action | no action | remain capable of deactivating elastase |  | 
4 | O=C1N(c2ccccc2CF)CC1(F)F [Compound 5b, N-(2-fluoromethylphenyl)-3,3-difluoro-2-azetidinone] | not inhibitors | elastase substrates |  |  |  |  |  |  |  |  |  |  |  |  |  | 
5 | O=C1N(c2ccc(CCl)cc2)CC1(F)F [Compound 10a, N-(4-chloromethylphenyl)-3,3-difluoro-2-azetidinone] |  |  |  | deactivate | 660 | 0.075 | 113 | deactivate |  |  | ~1.2 |  |  |  |  | 
6 | O=C1N(c2ccccc2CCl)CC1(F)F [Compound 5a, N-(2-chloromethylphenyl)-3,3-difluoro-2-azetidinone] |  |  |  | deactivate | 30 | 0.031 | 1030 | deactivate | 16.6 | 0.005 | 301 | no action | no action | remain capable of deactivating elastase | lost its capacity to degrade elastin | > 200
7 | O=C1N(c2ccccc2CCl)CC1(Cl)Cl [Compound 5e, N-(2-chloromethylphenyl)-3,3-di-chloro-2-azetidinone] |  |  |  |  | 590 | 0.028 | 47 |  | 500 | 0.03 | 60 |  |  |  |  | 
8 | O=C1N(c2ccccc2CCl)CC1(F)Br (stereo not shown) [5'a, N-(2-chloromethylphenyl)-3-fluoro-3bromo-2-azetidinone] |  |  |  | deactivate | 8.5 | 0.048 | 5650 | deactivate | 1170 | 0.37 | 316 | no action | no action | remain capable of deactivating elastase |  | 
